22 substances from patent publication US20080311189A1, “Compositions Comprising Organometallic Molybdenum Compounds For Treating Cancer” (priority 2004, published 2008) can be followed below.

What all share (type): cell-based
In experiment [1] the test system is Ehrlich ascites mouse tumor cell line. Nature of the experiment: MTT viability assay, Ehrlich ascites cells. Conditions: Ehrlich ascites mouse cancer cells, 3 hours incubation with drug, read 24 hours after removal of the drug. Here is the method:
(§1) The cytotoxic activity of theses complexes was evaluated against 6 different cell lines, using the MTT assay (3-(4,5-dimethylthiazol-2-yl)-2,5-diphenyltetrazolium bromide assay) (Mosmann, T. J. Immunol. Methods, 1983, 65, 55-63) to measure the cell viability.
(§2) Cell lines were routinely propagated in 75 cm^2 tissue culture flasks (SARSTEDT, Leicester, U.K.), in a humidified atmosphere of 5% CO2 in air at 37° C., and were trypsinized and harvested into new medium every 2-4 days, just before confluence. Cell lines were cultured for a minimum of two passages after thawing prior to experimentation.
The Ehrlich ascites mouse tumor cell line was purchased at ECACC (European Collection of Cell culture) and propagated in NCTC-135 medium (Sigma, ref. N3262) 2 mM in L-glutamine, supplemented with 10% heat-inactivated fetal bovine serum (FBS) and 1% penicillin/streptomycin.
(§3) This assay is based on the capacity of mitochondrial dehydrogenase enzymes in living cells to convert the yellow water soluble substrate (MTI) into a dark blue product which is quantified by spectrophotometric means. Briefly, exponentially growing cells were trypsinized, dispensed in sixplicates into 96-well tissue culture plates and allowed to attach overnight. The next day the cells were treated with various concentrations of the drug, ranging from 1 to 1000 μM. By addition of an adequate volume of a freshly prepared DMSO solution of the compound to the medium, the desired test concentrations were obtained. For. each test concentration and for the control which contained the corresponding amount of DMSO, 6 wells were used. After an incubation period of 3 hours the cells were carefully washed (twice) with phosphate buffer saline (PBS) and 100 μl of medium were added. The cells were incubated for 24 hours and 10 μl of a MTT solution (5 mg/ml) were added to each well. The tetrazolium/formazan reaction was allowed to proceed for 4 hours and the medium was carefully removed. The dark blue formazan crystals were dissolved by adding 150 μl of DMSO and agitating for 15 minutes in a plate shaker. The optical density was measured at […] using a 96-well multiscanner autoreader. The percentage of survival was calculated using the formula: % survival=live cell number [test]/live cell number [control]×100. The IC50 values were calculated by nonlinear regression analysis using the graphed Prism software (GraphPad Software, Inc., San Diego, Calif.) and are compiled in tables 2-4.
(§4) Using the colorimetric mitochondrial function-based MTT viability assay, we examined the effects of molybdenum (II) complexes against 6 different cell lines, by measuring the cellular proliferation at 8 different concentrations ranging from 1 to 1000 μM, 24 hours after removal of the drug. The IC50 values were calculated from dose-response curves obtained by nonlinear regression analysis. FIG. 4 represent and compare dose-response curves obtained for several molybdenum compounds against the Ehrlich ascites mouse cell line.
A general note: Tetrazolium assays rely on reduction of a dye to a coloured formazan, in cell work by metabolically active cells.

In experiment [2] the test system is non-tumoral MRC-5 human fibroblast. The experiment is described as follows: MTT viability assay, non-tumoral human fibroblasts. The note with it: MRC-5 human fibroblasts, 3 hours incubation with drug, 24 hours after removal. The procedure:
as §1, §2
The […] cells, secondary human lung fibroblasts, were purchased at ECACC. The cells were grown in MEM with Earls' Salt and L-glutamine (Gibco, ref. 61100-053), supplemented with 10% fetal bovine serum (FBS) and 1% neomycin.
as §3, §4

Experiment [3] deals with GP-220 gastric human cell line. Nature of the experiment: MTT viability assay, GP-220 cells. Conditions: 3 hours incubation with drug, 24 hours after removal, read-out: IC50 VALUE, Human tumoral cell lines, Gastric GP-220. Here is the method:
as §1, §2
(§5) The tumnoral GP-202 and GP-220 gastric human cell lines were established at IPATIMUP (Instituto de Patologia e Imunologia Molecular da Universidade do Porto). […]
(§6) This assay is based on the capacity of mitochondrial dehydrogenase enzymes in living cells to convert the yellow water soluble substrate (MTI) into a dark blue product which is quantified by spectrophotometric means. […] The optical density was measured at […] using a 96-well multiscanner autoreader. The percentage of survival was calculated using the formula: % survival=live cell number [test]/live cell number [control]×100. The IC50 values were calculated by nonlinear regression analysis using the graphed Prism software (GraphPad Software, Inc., San Diego, Calif.) and are compiled in tables 2-4. […]

Experiment [4] has as its system MKN45 gastric human cell line. Nature of the experiment: MTT viability assay, MKN-45 cells. Conditions: 3 hours incubation with drug, 24 hours after removal, read-out: IC50 VALUE, Human tumoral cell lines, Gastric MKN-45. The procedure:
as §1, §2
(§7) The tumoral MKN45 gastric and HT-29 colorectal human cell lines were purchased at ECACC. […]
as §6

In experiment [5] the test system is GP-202 gastric human cell line. Nature of the experiment: MTT viability assay, GP-202 cells. Conditions: 3 hours incubation with drug, 24 hours after removal, read-out: IC50 VALUE, Human tumoral cell lines, Gastric GP-202. The procedure:
as §1, §2, §5, §6

Experiment [6] has as its system HT-29 colorectal human cell line. Nature of the experiment: MTT viability assay, HT-29 cells. The note with it: 3 hours incubation with drug, 24 hours after removal, read-out: IC50 VALUE, Human tumoral cell lines, Colon HT-29. The procedure:
as §1, §2, §7, §6

In general, IC50 refers to the concentration at which inhibition is half-maximal. In experiment [1], “(η^3-C3H5)Mo(CO)2(1,10-phen)Br [Compound 24]” yielded a half-inhibitory concentration (IC50) of 7.3 ± 1 µM.

Turning to “(η^3-C3H5)Mo(CO)2(2,3-Me2-p-tolilDAB)Br [Compound 23]”, the IC50 in experiment [2] turned out to be 104 ± 1.1 µM; in experiment [1], 59.1 ± 1.1 µM.

Take “(η^3-C3H5)Mo(CO)2(4,7-diphenyl-1,10-phen)Br [Compound 25]”: the IC50 in experiment [2] worked out at 12.1 ± 1.1 µM; in experiment [1], 12.5 ± 1.2 µM.

[(η^5-Cp)Mo(CO)2dppe]BF4 [Compound 21]: the half-inhibitory concentration (IC50) came out at 24 ± 1 µM in experiment [2] and 20 ± 1.1 µM in experiment [1].

The substance “[(η^5-Cp)Mo(CO)2trithiane]BF4 [Compound 19]” came in with an IC50 in experiment [1] of 142.1 ± 1.1 µM.

Regarding [(η^5-Cp)Mo(CO)2tten]BF4 [Compound 20], the IC50 was 139.8 ± 1.2 µM in experiment [2] and 138.9 ± 1.2 µM in experiment [1].

With “[(η^5-Cp)Mo(CO)2{5,6-Ph2-3-(2-py)-1,2,4-Tz}]BF4 [Compound 22]”, the IC50 in experiment [2] was 68.9 ± 1.1 µM; in experiment [1] it was 105 ± 1.2 µM.

Consider “[(η^5-Ind)Mo(CO)2(1,4,7,10-tetrt)]BF4 [Compound 17]”, for which the concentration for half-maximal inhibition (IC50) in experiment [2] is 213.5 ± 1.1 µM; in experiment [1], 19.9 ± 1.1 µM.

In the case of “[(η^5-Ind)Mo(CO)2(2,2′-biq)]BF4 [Compound 8]”, the 50% inhibitory concentration (IC50) in experiment [3] worked out at 2.7 ± 1 µM; in experiment [4] it was 4.4 ± 1 µM; in experiment [5], 5 ± 1.1 µM; in experiment [2], 13 ± 1 µM; in experiment [6] it was 13.3 ± 1.1 µM; in experiment [1] it was 35 ± 1.1 µM.

Consider “[(η^5-Ind)Mo(CO)2(4,4′-Ph2-2,2′-bpy)]BF4 [Compound 2]”, for which, in experiment [1], 13.7 ± 1.1 µM corresponded to half-maximal inhibition (IC50).

“[(η^5-Ind)Mo(CO)2(4,7-Me2-1,10-phen)]BF4 [Compound 7]”: the IC50 worked out at 64.4 ± 1.1 µM in experiment [2] and 29.5 ± 1 µM in experiment [1].

Consider “[(η^5-Ind)Mo(CO)2(4,7-Ph2-1,10-phen)]BF4 [Compound 6]”, for which the IC50 in experiment [3] is 1.8 ± 1.1 µM; in experiment [4], 4.6 ± 1.1 µM; in experiment [5], 4.2 ± 1.1 µM; in experiment [2], 14.9 ± 1 µM; in experiment [6], 6.6 ± 1 µM; in experiment [1], 5.7 ± 1 µM.

As to “[(η^5-Ind)Mo(CO)2(CYDAB)]BF4 [Compound 4]”, the IC50 in experiment [2] is 75 ± 1.1 µM; in experiment [1], 140.3 ± 1.2 µM.

Turning to “[(η^5-Ind)Mo(CO)2(NCMe)2]BF4 [Compound 18]”, the concentration for half-maximal inhibition (IC50) in experiment [1] was 56.7 ± 1.7 µM.

Turning to “[(η^5-Ind)Mo(CO)2(p-tolilDAB)]BF4 [Compound 3]”, the IC50 came out at 84.1 ± 1 µM in experiment [2] and 6.6 ± 1 µM in experiment [1].

Take [(η^5-Ind)Mo(CO)2bpy]BF4 [Compound 1]: the IC50 in experiment [2] amounted to 143.2 ± 1.1 µM; in experiment [1] it was 95.9 ± 1.1 µM.

Take [(η^5-Ind)Mo(CO)2dppe]BF4 [Compound 14]: the IC50 amounted to 20.3 ± 1.1 µM in experiment [2] and 5.8 ± 1.1 µM in experiment [1].

[(η^5-Ind)Mo(CO)2phen]BF4 [Compound 5]: the figures for the half-inhibitory concentration (IC50) in experiment [2] and in experiment [1] were 73.3 ± 1.1 µM and 32.9 ± 1 µM, respectively.

With “[(η^5-Ind)Mo(CO)2trithiane]BF4 [Compound 15]”, the results for the IC50 in experiment [2] and in experiment [1] were 136.6 ± 1 µM and 20.7 ± 1 µM, respectively.

As for [(η^5-Ind)Mo(CO)2tten]BF4 [Compound 16], the IC50 is 91 ± 1.1 µM in experiment [2] and 8.4 ± 1.1 µM in experiment [1].

For the substance “[(η^5-Ind)Mo(CO)2{1,2-Ph(NH2)2}]BF4 [Compound 13]”, the half-inhibitory concentration (IC50) in experiment [2] is 73.7 ± 1.1 µM; in experiment [1], 67.6 ± 1.2 µM.

In the case of “[(η^5-Ind)Mo(CO)2{5,6-Ph2-3-(2-py)-1,2,4-Tz}]BF4 [Compound 9]”, the IC50 in experiment [2] was 13.4 ± 1 µM.
